Data reported in patent US20090123419A1, “TREATMENT OF UTERINE CANCER AND OVARIAN CANCER WITH A PARP INHIBITOR ALONE OR IN COMBINATION WITH ANTI-TUMOR AGENTS” (BiPar Sciences, priority 2007, published 2009).

What was measured:
[1] = Preclinical studies of BA with topotecan
[2] = tested on: cervical adenocarcinoma Hela cells; experiment: BrdU cell proliferation assay in Hela cells; type: cell-based, human; conditions: BA at various concentrations, FIG. 6
Method: The effect of BA on the proliferation of cervical adenocarcinoma Hela cells is examined. Cell proliferation is assessed by BrdU assay as described herein.
Hela cell is an immortal cell line used in medical research. The cell line was derived from cervical cancer cells. HeLa S3 is a clonal derivative of the parent HeLa line. The HeLa S3 clone has been very useful in the clonal analysis of mammalian cell populations relating to chromosomal variation, cell nutrition, and plaque-forming ability. HeLa cells have been reported to contain human papilloma virus 18 (HPV-18) sequences. Cells are cultured according to the standard protocol (ATCC) in the art. Briefly: 1. Remove and discard culture medium. 2. […] 3. Add 2.0 to 3.0 ml of Trypsin-EDTA solution to flask and observe cells under an inverted microscope until cell layer is dispersed (usually within 5 to 15 minutes). Cells that are difficult to detach may be placed at 37° C. to facilitate dispersal. 4. Add 6.0 to 8.0 ml of complete growth medium and aspirate cells by gently pipetting. 5. Add appropriate aliquots of the cell suspension to new culture vessels. 6. Incubate cultures at 37° C.
BrdU assay is well known in the art. […] The immune complexes are detected by the subsequent substrate reaction via chemiluminescent detection (based on Cell Proliferation ELISA, BrdU Chemiluminescence Protocol from Roche). […]

PARP = molecular target: T1, PARP (Homo sapiens, UniProt P09874); experiment: PARP activity assay in peripheral blood mononuclear cells (PBMCs) from patients; type: in vivo; conditions: for PARP inhibition in PBMCs: after multiple dosing with BA doses of 2.8 mg/kg or higher, FIG. 5, 2.8 mg/kg
T1 construct: endogenous in cells; host or cells: peripheral blood mononuclear cells from patients dosed with BA
Method: Whole blood is collected into EDTA vacutainers and human PBMCs are obtained by BD Vacutainer™ CPT™ Cell Preparation kit according to the manufacturer's instructions (BD Vacutainer™, REF 362760). Tumor samples are collected in a sterile container and placed immediately on ice. Within 30 minutes, tumor samples are snap-frozen in liquid nitrogen and stored at −80° C. until homogenized for analysis. The specimen is defrosted on ice and the wet weight is documented. The tissue is homogenized using isotonic buffer [7 mmol/L HEPES, 26 mmol/L KCl, 0.1 mmol/L dextran, 0.4 mmol/L EGTA, 0.5 mmol/L MgCl2, 45 mmol/L sucrose (pH 7.8)]. The homogenate is kept on ice throughout the process, and homogenization is done in 10-second bursts to prevent undue warming of the sample. Unless assayed on the day of homogenization, samples are refrozen to −80° C. and stored at this temperature until analyzed.
Cell preparations are defrosted rapidly at room temperature and washed twice in ice-cold PBS. […] Maximally stimulated PARP activity is measured in replicate samples of 20,000 cells in a reaction mixture containing […] NAD+ and 10 mg/mL oligonucleotide in a reaction buffer of 100 mmol/L Tris-HCl, 120 mmol/L MgCl2 (pH 7.8) in a final volume of […] as described previously (24) at 26° C. in an oscillating water bath. […] Purified PAR standards are loaded onto each membrane (0-25 pmol monomer equivalent) to generate a standard curve and allow quantification. […] Chemiluminesence detected during a 5-minute exposure is measured using a Fuji LAS3000 UV Illuminator (Raytek, Sheffield, United Kingdom) and digitized using the imaging software (Fuji LAS Image version 1.1, Raytek). The acquired image is analyzed using Aida Image Analyzer (version 3.28.001), and results are expressed in LAU/mm2. Three background areas on the exposed blot are measured and the mean of the background signal from the membrane is subtracted from all results. The PAR polymer standard curve is analyzed using an unweighted one-site binding nonlinear regression model and unknowns read off the standard curve so generated. […]

[3] = Tissue distribution of BA; type: in vivo

T1 sequence (P09874 whole entry): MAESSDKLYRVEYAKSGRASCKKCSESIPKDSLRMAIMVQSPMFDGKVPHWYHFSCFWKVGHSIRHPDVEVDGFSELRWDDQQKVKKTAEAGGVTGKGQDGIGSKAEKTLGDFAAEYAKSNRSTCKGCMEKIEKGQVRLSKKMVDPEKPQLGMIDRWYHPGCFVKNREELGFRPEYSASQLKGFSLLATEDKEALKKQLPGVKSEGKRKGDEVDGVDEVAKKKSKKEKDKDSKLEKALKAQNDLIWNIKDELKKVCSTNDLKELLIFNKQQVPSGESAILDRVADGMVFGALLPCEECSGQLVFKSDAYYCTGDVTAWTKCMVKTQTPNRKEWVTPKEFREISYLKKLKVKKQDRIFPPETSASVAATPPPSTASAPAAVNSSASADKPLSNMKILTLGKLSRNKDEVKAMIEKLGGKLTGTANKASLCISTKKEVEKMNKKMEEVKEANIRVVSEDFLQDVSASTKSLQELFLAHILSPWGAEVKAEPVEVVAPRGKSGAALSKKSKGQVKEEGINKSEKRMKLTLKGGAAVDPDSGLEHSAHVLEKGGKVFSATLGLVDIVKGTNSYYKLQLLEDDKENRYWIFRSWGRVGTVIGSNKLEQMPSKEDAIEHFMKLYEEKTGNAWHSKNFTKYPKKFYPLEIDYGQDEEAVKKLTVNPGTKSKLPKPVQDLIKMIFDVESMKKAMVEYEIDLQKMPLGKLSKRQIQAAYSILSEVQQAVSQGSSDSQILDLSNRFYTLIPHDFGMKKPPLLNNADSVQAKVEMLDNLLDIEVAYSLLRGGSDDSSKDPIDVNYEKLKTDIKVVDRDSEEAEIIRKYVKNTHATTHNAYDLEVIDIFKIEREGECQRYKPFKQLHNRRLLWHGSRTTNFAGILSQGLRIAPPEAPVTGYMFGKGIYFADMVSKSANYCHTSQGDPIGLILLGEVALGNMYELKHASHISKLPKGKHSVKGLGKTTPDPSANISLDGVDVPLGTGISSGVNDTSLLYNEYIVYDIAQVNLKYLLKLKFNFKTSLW

NC(=O)c1ccc(I)c([N+](=O)[O-])c1 [BA, 4-iodo-3-nitrobenzamide]
effect on antitumor activity of topotecan [1]: potentiates the antitumor activity of topotecan | proliferation of cervical adenocarcinoma Hela cells [2]: inhibits proliferation | PARP inhibition in PBMCs (PARP): significant and prolonged PARP inhibition | PARP inhibition in PBMCs (PARP; listed as 4-iodo-3-nitrobenzamide): PARP inhibition | biologically relevant dose that elicits significant and sustained PARP inhibition (PARP; at effective preclinical blood concentrations): 2.8 mg/kg | blood-brain barrier crossing ([3]; in vivo): known to cross the blood-brain barrier | tissue distribution ([3]; including the brain and cerebrospinal fluid (CSF)): distributes rapidly and widely into tissues
